# Test results reported in patent publication US20090269795A1, “Mutant alpha4betadelta GABAA receptor and methods of treating anxiety or irritability” (priority 2007, published 2009).
# Experiments:
# α4β2δ GABAA receptors = assay: Whole cell patch clamp of GABA-gated current, recombinant receptors in HEK-293 cells; format: cell-based, human or mouse α4, rat β2, human δ; conditions: 30 nM THP
# Text: (§1) Recombinant receptors: Transfection—Plasmids obtained from S. Vicini (rat α1, α5, β2, β3 and γ2), P. Whiting (human α4 and δ) and N. L. Harrison (mouse α4) were propagated in E coli DH5α and prepared using Qiagen Maxi- or Midi-prep kits. (Rat, mouse and human α1, β2, β3 and γ2 subunits are identical or nearly identical.) All receptors were transfected at a 1:1:1 ratio, except α1β2γ2 (1:1:5)^12, α4βδ (5:1:5)^13 and α4β2γ2 (5:1:1). HEK-293 cells were maintained in medium (DMEM:Ham's F-12 1:1) supplemented with 10% fetal calf serum at 37° C. in a humid 5% CO2 atmosphere. Cells were transfected using calcium phosphate or Polyfect (Qiagen) and co-transfected with enhanced green fluorescent protein (ratio of DNA to eGFP was 6:1 or 10:1 depending on the DNA concentration) for visualization. α4-containing GABAA receptors required 2-3 d for maximal levels of expression; all other receptors were recorded 1-2 d after transfection. Because mouse α4 and human α4-containing receptors yielded the same results, the currents were averaged together.
# Whole cell patch clamp recording—GABA-gated currents were recorded at room temperature (20-22° C.) at a holding potential of −50 mV^14. The pipet solution contained (in mM): N-methyl-D-glucamine chloride 120, Cs4BAPTA 5 (Calbiochem), Mg-ATP 5, and an ATP regeneration system (20 mM Tris phosphocreatine and creatine kinase). Internal [Cl^−] or the holding potential were varied, using gluconate as the anion, to alter the direction of Cl^− flow, corrected for the junction potential. In some cases, current-voltage curves were constructed using the peak current response to agonist or agonist+THP across a range of holding potentials (−60 to +60) applied as 10 mV steps, or as a voltage ramp. […] Traces are presented as the average of 3 traces after subtraction of the leak current. […] This rapid application technique yields currents with a rapid rise phase. THP was also bath applied 30 s prior to tests of steroid effects. Currents were recorded using an Axopatch 1D amplifier (Axon Instruments) filtered at 2 kHz (four-pole Bessel filter) and detected at 10 kHz (pClamp 5.1). Analysis of peak current was accomplished with pClamp 9.2 and Origin software (Microcal).
# Following the recording, the patch was blown out, and the open tip potential recorded using solutions with a 5% difference in NaCl osmolarity to verify the approximate solution exchange time. The time constant (τ) for desensitization was approximated using non-linear curve fitting routines with Levenburg-Marquardt algorithms (Origin software, Microcal). Goodness of fit was determined by minimizing the sum of the squares of deviations of the theoretical curve from the experimental points.
# Recombinant receptors: Human embryonic kidney (HEK)-293 cells were transfected with α4 β2δ or other indicated subunit combinations (see Supplementary Methods) and co-transfected with enhanced green fluorescent protein for visualization. GABA-gated currents were recorded at room temperature (20-22° C.) at a holding potential of −50 mV^17 using a pipet solution containing 120 mM: N-methyl-D-glucamine chloride. Internal [Cl^−] or the holding potential were varied to alter the direction of Cl^− flow. […] Currents were recorded using an Axopatch 1D amplifier (Axon Instruments) filtered at 2 kHz (four-pole Bessel filter), detected at 10 kHz and analyzed with pClamp 9.2. Desensitization rate was determined using non-linear curve-fitting routines (Origin, Microcal; see next section).
# Further Studies with Recombinant receptors: Transfection—Plasmids obtained from S. Vicini (rat α1, α5, β2, β3 and y2), P. Whiting (human α4 and 6) and N. L. Harrison (mouse α4) were propagated in E coli DH5α and prepared using Qiagen Maxi- or Midi-prep kits. (Rat, mouse and human α1, β2, β3 and γ2 subunits are identical or nearly identical.) All receptors were transfected at a 1:1:1 ratio, except a132γ2 (1:1:5)^12, α4β28 (5:1:5)^13 and α4β2γ2 (5:1:1). […]
# [1] = test system: CA1 hippocampal pyramidal cells; assay: Tonic GABAergic current, whole cell patch clamp, hippocampal slice; format: cell-based, mouse
# Method: In whole cell recordings of the tonic current, the bath contained 2 mM kynurenic acid and 5-10 mM TEA to pharmacologically isolate the GABAergic current, and in some cases, 200 nM gabazine (6-imino-3-(4-methyoxyphenyl)-1 (6H)-pyridazinebutanoic acid hydrobromide) to selectively block the synaptic GABAergic currents^22. […] In some cases, 50 μM L-655,708 was added to the bath solution to block α5-containing GABAA receptors^23.
# Tonic current was recorded as the difference current produced by 120 μM gabazine, which blocks all GABAA receptor, before and after 30 nM THP^24. Current was also recorded in response to 2 s 10 mV steps in the holding potential, and current-voltage curves generated to the steady-state current. Because fast-inactivating conductances would not be excluded in a voltage ramp, stable steady-state current responses were used instead to construct the current-voltage (IV) curves. Input resistance (Rm) was calculated from the current response to voltage steps from −60 to −40 mV using Ohm's Law. The reversal potential was determined by the […] of the IV curve (−90 to −10 mV). The gabazine-sensitive slope conductance was assessed as the slope of the linear portion of outward current plot recorded before and after THP after subtraction of the gabazine-generated current (in the presence of L-655,708 to block α5-GABAA receptors). Only data with a stable baseline and pipet access resistance <10 MΩ were included in the analysis.
# α4β2γ2 receptors = assay: Whole cell patch clamp of GABA-gated current, recombinant receptors in HEK-293 cells; format: cell-based, human or mouse α4, rat β2, rat γ2; conditions: 30 nM THP
# Text: as §1
# Whole cell patch clamp recording—GABA-gated currents were recorded at room temperature (20-22° C.) at a holding potential of −50 mV^14. […] Currents were recorded using an Axopatch 1D amplifier (Axon Instruments) filtered at 2 kHz (four-pole Bessel filter) and detected at 10 kHz (pClamp 5.1). […]
smiles,measurement,setting,value
"CC(=O)[C@H]1CC[C@H]2[C@@H]3CC[C@H]4C[C@H](O)CC[C@]4(C)[C@H]3CC[C@]12C [THP, 3α-OH-5α[β]-pregnan-20-one]",effect on Cl− reversal potential,α4β2δ GABAA receptors,did not itself alter the Cl^− reversal potential
same,effect applied without GABA,α4β2δ GABAA receptors; no GABA,had no effect
same,effect on outward current gated by 20 nM GABA,α4β2δ GABAA receptors; 20 nM GABA,potentiated
same,effect on inward currents,α4β2δ GABAA receptors; 1 μM GABA,robustly increased inward currents
same,decrease of outward GABA-gated Cl− current,"α4β2δ GABAA receptors; 1 μM GABA, −50 mV, mean±SEM",28±3%
same,effect on peak current,α4β2δ GABAA receptors; 100 μM GABA,unchanged
same,desensitization of outward currents,"α4β2δ GABAA receptors; 100 μM GABA for 2 s, pre-THP 8±2%",87±5.6%
same,time constant (τ) of desensitization,"α4β2δ GABAA receptors; 100 μM GABA, pre-THP 1700±200 ms",230 ± 35 ms
same,decrease of conductance of the outward current,α4β2δ GABAA receptors; across a range of voltage steps,36-43%
same,reduction of outward tonic current,"[1]; 30 nM THP, pubertal mice, low internal Cl−",48±6%
same,effect on outward tonic current,[1]; before puberty,increased the outward tonic current
same,"effect on tonic GABAergic current, inward","[1]; pubertal, cell loaded with Cl− to produce inward current",increased the tonic GABAergic current
same,effect on outward tonic current,[1]; δ−/− mouse after puberty,increased the outward tonic current
same,effect on outward current,α4β2γ2 receptors,either increased or had no effect
